# Assay results from PubChem BioAssay (NCI).
#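 Compound exposure: 48 hours, 5 concentrations, 96-well plates. Definition used: TGI = concentration required for complete inhibition of growth.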
# Assays:
# Experiment in all cases: NCI anticancer screen, dose series, 48 h
# SF-295 CNS = system: SF-295 CNS
# HCT-116 colon = system: HCT-116 colon
# HOP-92 NSCLC = system: HOP-92 NSCLC
# MOLT-4 leukemia = system: MOLT-4 leukemia
# HCC-2998 colon = system: HCC-2998 colon
# BT-549 breast = system: BT-549 breast
# UACC-257 melanoma = system: UACC-257 melanoma
# DU-145 prostate = system: DU-145 prostate
# IGROV1 ovarian = system: IGROV1 ovarian
# M14 melanoma = system: M14 melanoma
# SN12C renal = system: SN12C renal
# A498 renal = system: A498 renal
# A549 NSCLC = system: A549 NSCLC
# OVCAR-4 ovarian = system: OVCAR-4 ovarian
# SF-268 CNS = system: SF-268 CNS
# KM12 colon = system: KM12 colon
# SK-MEL-5 melanoma = system: SK-MEL-5 melanoma
# OVCAR-3 ovarian = system: OVCAR-3 ovarian
# SK-MEL-2 melanoma = system: SK-MEL-2 melanoma
# RXF 393 renal = system: RXF 393 renal
# MALME-3M melanoma = system: MALME-3M melanoma
# SNB-75 CNS = system: SNB-75 CNS
# HS 578T breast = system: HS 578T breast
# OVCAR-8 ovarian = system: OVCAR-8 ovarian
# COLO 205 colon = system: COLO 205 colon
# OVCAR-5 ovarian = system: OVCAR-5 ovarian
# NCI-H522 lung = system: NCI-H522 lung
# NCI-H23 lung = system: NCI-H23 lung
# MDA-N = system: MDA-N
# MDA-MB-231 breast = system: MDA-MB-231 breast
# PC-3 prostate = system: PC-3 prostate
# MDA-MB-435 = system: MDA-MB-435
# NCI-H460 lung = system: NCI-H460 lung
# U251 CNS = system: U251 CNS
# 786-0 renal = system: 786-0 renal
# EKVX NSCLC = system: EKVX NSCLC
# RPMI-8226 leukemia = system: RPMI-8226 leukemia
# NCI/ADR-RES ovarian = system: NCI/ADR-RES ovarian
# LOX IMVI melanoma = system: LOX IMVI melanoma
# SK-MEL-28 melanoma = system: SK-MEL-28 melanoma
# ACHN renal = system: ACHN renal
# SR leukemia = system: SR leukemia
# SF-539 CNS = system: SF-539 CNS
# SK-OV-3 ovarian = system: SK-OV-3 ovarian
# UACC-62 melanoma = system: UACC-62 melanoma
# HCT-15 colon = system: HCT-15 colon
# CCRF-CEM leukemia = system: CCRF-CEM leukemia
# SW-620 colon = system: SW-620 colon
# MCF7 breast = system: MCF7 breast
# HL-60(TB) leukemia = system: HL-60(TB) leukemia
# SNB-19 CNS = system: SNB-19 CNS
# K-562 leukemia = system: K-562 leukemia
# CAKI-1 renal = system: CAKI-1 renal
# UO-31 renal = system: UO-31 renal
# HOP-62 NSCLC = system: HOP-62 NSCLC
# HT29 colon = system: HT29 colon
# NCI-H226 lung = system: NCI-H226 lung
# TK-10 renal = system: TK-10 renal
# T-47D breast = system: T-47D breast
smiles,measurement,setting,value
CCOP(=O)(OCC)/C(C#N)=C/c1cnc(-c2ccccc2)[nH]1,TGI,SF-295 CNS,> 100 µM
same,TGI,HCT-116 colon,> 100 µM
same,TGI,HOP-92 NSCLC,> 100 µM
same,TGI,MOLT-4 leukemia,> 100 µM
same,TGI,HCC-2998 colon,> 100 µM
same,TGI,BT-549 breast,> 100 µM
same,TGI,UACC-257 melanoma,> 100 µM
same,TGI,DU-145 prostate,> 100 µM
same,TGI,IGROV1 ovarian,> 100 µM
same,TGI,M14 melanoma,> 100 µM
same,TGI,SN12C renal,> 100 µM
same,TGI,A498 renal,> 100 µM
same,TGI,A549 NSCLC,> 100 µM
same,TGI,OVCAR-4 ovarian,> 100 µM
same,TGI,SF-268 CNS,> 100 µM
same,TGI,KM12 colon,> 100 µM
same,TGI,SK-MEL-5 melanoma,> 100 µM
same,TGI,OVCAR-3 ovarian,> 100 µM
same,TGI,SK-MEL-2 melanoma,> 100 µM
same,TGI,RXF 393 renal,> 100 µM
same,TGI,MALME-3M melanoma,> 100 µM
same,TGI,SNB-75 CNS,> 100 µM
same,TGI,HS 578T breast,> 100 µM
same,TGI,OVCAR-8 ovarian,> 100 µM
same,TGI,COLO 205 colon,> 100 µM
same,TGI,OVCAR-5 ovarian,> 100 µM
same,TGI,NCI-H522 lung,> 100 µM
same,TGI,NCI-H23 lung,> 100 µM
same,TGI,MDA-N,> 100 µM
same,TGI,MDA-MB-231 breast,> 100 µM
same,TGI,PC-3 prostate,> 100 µM
same,TGI,MDA-MB-435,80.9 µM
same,TGI,NCI-H460 lung,> 100 µM
same,TGI,U251 CNS,> 100 µM
same,TGI,786-0 renal,> 100 µM
same,TGI,EKVX NSCLC,> 100 µM
same,TGI,RPMI-8226 leukemia,> 100 µM
same,TGI,NCI/ADR-RES ovarian,> 100 µM
same,TGI,LOX IMVI melanoma,> 100 µM
same,TGI,SK-MEL-28 melanoma,> 100 µM
same,TGI,ACHN renal,> 100 µM
same,TGI,SR leukemia,> 100 µM
same,TGI,SF-539 CNS,> 100 µM
same,TGI,SK-OV-3 ovarian,> 100 µM
same,TGI,UACC-62 melanoma,> 100 µM
same,TGI,HCT-15 colon,> 100 µM
same,TGI,CCRF-CEM leukemia,> 100 µM
same,TGI,SW-620 colon,> 100 µM
same,TGI,MCF7 breast,> 100 µM
same,TGI,HL-60(TB) leukemia,> 100 µM
same,TGI,SNB-19 CNS,> 100 µM
same,TGI,K-562 leukemia,> 100 µM
same,TGI,CAKI-1 renal,> 100 µM
same,TGI,UO-31 renal,> 100 µM
same,TGI,HOP-62 NSCLC,> 100 µM
same,TGI,HT29 colon,> 100 µM
same,TGI,NCI-H226 lung,> 100 µM
COc1ccc(-c2cc(-c3ccco3)c(C#N)c(=S)n2C2OC(COC(C)=O)C(OC(C)=O)C(OC(C)=O)C2OC(C)=O)cc1 (stereo not given),TGI,SF-295 CNS,4.65 µM
same,TGI,HCT-116 colon,22.8 µM
same,TGI,HOP-92 NSCLC,13 µM
same,TGI,MOLT-4 leukemia,> 100 µM
same,TGI,TK-10 renal,45.1 µM
same,TGI,HCC-2998 colon,48.4 µM
same,TGI,BT-549 breast,8.23 µM
same,TGI,DU-145 prostate,20.3 µM
same,TGI,IGROV1 ovarian,29.5 µM
same,TGI,M14 melanoma,17.7 µM
same,TGI,SN12C renal,24 µM
same,TGI,A549 NSCLC,24.5 µM
same,TGI,OVCAR-4 ovarian,10 µM
same,TGI,SF-268 CNS,23.5 µM
same,TGI,KM12 colon,33.4 µM
same,TGI,SK-MEL-5 melanoma,22.8 µM
same,TGI,OVCAR-3 ovarian,19.7 µM
same,TGI,RXF 393 renal,21.3 µM
same,TGI,MALME-3M melanoma,16.9 µM
same,TGI,SNB-75 CNS,17.7 µM
same,TGI,HS 578T breast,21.1 µM
same,TGI,OVCAR-8 ovarian,13 µM
same,TGI,COLO 205 colon,16.2 µM
same,TGI,OVCAR-5 ovarian,30.9 µM
same,TGI,NCI-H522 lung,18 µM
same,TGI,MDA-N,19.2 µM
same,TGI,MDA-MB-231 breast,16.1 µM
same,TGI,PC-3 prostate,16.5 µM
same,TGI,MDA-MB-435,28.2 µM
same,TGI,NCI-H460 lung,52 µM
same,TGI,U251 CNS,17.8 µM
same,TGI,786-0 renal,10.6 µM
same,TGI,EKVX NSCLC,32.2 µM
same,TGI,RPMI-8226 leukemia,22.8 µM
same,TGI,NCI/ADR-RES ovarian,37.7 µM
same,TGI,LOX IMVI melanoma,15.1 µM
same,TGI,SK-MEL-28 melanoma,12.7 µM
same,TGI,ACHN renal,19.4 µM
same,TGI,SF-539 CNS,4.56 µM
same,TGI,SK-OV-3 ovarian,26.8 µM
same,TGI,UACC-62 melanoma,14.4 µM
same,TGI,HCT-15 colon,> 100 µM
same,TGI,SW-620 colon,93.2 µM
same,TGI,MCF7 breast,> 100 µM
same,TGI,HL-60(TB) leukemia,20.7 µM
same,TGI,SNB-19 CNS,19.1 µM
same,TGI,K-562 leukemia,> 100 µM
same,TGI,T-47D breast,21.7 µM
same,TGI,CAKI-1 renal,13.9 µM
same,TGI,UO-31 renal,27.2 µM
same,TGI,HOP-62 NSCLC,8.88 µM
same,TGI,HT29 colon,14.8 µM
same,TGI,NCI-H226 lung,16.5 µM
